ChEMBL document CHEMBL6096721, “Discovery of Selenium-Containing Derivatives as Potent and Orally Bioavailable GLP-1R Agonists” (J Med Chem, 2025)
Activity calls are given as the source filed them. The calls are words filed in the database; no cut-off is given here.

Columns and labels:
[1] = molecular target: T1, Glucagon-like peptide 1 receptor (Homo sapiens, UniProt P43220); test: Partial agonist activity at LgBit-tagged GLP-1R (unknown origin) transfected in HEK293 cells co-transfected with Smbit-tagged beta-arrestin-1 assessed as beta-arrestin recruitment incubated for 5 mins by envision microplate reader analysis; type: functional, cell-based
[2] = molecular target: T1, Glucagon-like peptide 1 receptor; test: Partial agonist activity at LgBit-tagged GLP-1R (unknown origin) transfected in HEK293 cells co-transfected with Smbit-tagged beta-arrestin-1 assessed as beta-arrestin recruitment by measuring maximal efficacy incubated for 5 mins by envision microplate reader analysis relative to control; type: functional, cell-based
[3] = Cmax in male ICR mouse at 2 mg/kg, iv measured after 24 hrs by LC-MS/MS analysis; type: ADME, organism-based; conditions: in vivo
[4] = AUC (0 to t) in male ICR mouse at 2 mg/kg, iv measured after 24 hrs by LC-MS/MS analysis; type: ADME, organism-based; conditions: in vivo
[5] = Half-life in male ICR mouse at 2 mg/kg, iv measured after 24 hrs by LC-MS/MS analysis; type: ADME, organism-based; conditions: in vivo
[6] = MRT (0 to t) in male ICR mouse at 2 mg/kg, iv measured after 24 hrs by LC-MS/MS analysis; type: ADME, organism-based; conditions: in vivo
[7] = Apparent volume of distribution in male ICR mouse at 2 mg/kg, iv measured after 24 hrs by LC-MS/MS analysis; type: ADME, organism-based; conditions: in vivo, read-out: Vz
[8] = Clearance in male ICR mouse at 2 mg/kg, iv measured after 24 hrs by LC-MS/MS analysis; type: ADME, organism-based; conditions: in vivo
[9] = Cmax in male ICR mouse at 10 mg/kg, po measured after 24 hrs by LC-MS/MS analysis; type: ADME, organism-based; conditions: in vivo
[10] = Tmax in male ICR mouse at 10 mg/kg, po measured after 24 hrs by LC-MS/MS analysis; type: ADME, organism-based; conditions: in vivo
[11] = AUC (0 to t) in male ICR mouse at 10 mg/kg, po measured after 24 hrs by LC-MS/MS analysis; type: ADME, organism-based; conditions: in vivo
[12] = Half-life in male ICR mouse at 10 mg/kg, po measured after 24 hrs by LC-MS/MS analysis; type: ADME, organism-based; conditions: in vivo
[13] = MRT (0 to t) in male ICR mouse at 10 mg/kg, po measured after 24 hrs by LC-MS/MS analysis; type: ADME, organism-based; conditions: in vivo
[14] = Oral bioavailability in male ICR mouse at 10 mg/kg measured after 24 hrs by LC-MS/MS analysis; type: ADME, organism-based; conditions: in vivo
[15] = molecular target: T1, Glucagon-like peptide 1 receptor; test: Binding affinity to human GLP-1R assessed as association rate constant by SPR analysis; conditions: filed as agonist
[16] = molecular target: T1, Glucagon-like peptide 1 receptor; test: Binding affinity to human GLP-1R assessed as dissociation rate constant (Kd) by SPR analysis
[17] = molecular target: T1, Glucagon-like peptide 1 receptor; test: Binding affinity to human GLP-1R assessed as dissociation constant (KD) by SPR analysis
[18] = Protein binding in mouse plasma at 2 uM; type: ADME, cell-free; conditions: read-out: PPB (converted)
[19] = Protein binding in mouse plasma at 2 uM assessed as unbound fraction; type: ADME, cell-free
[20] = Unbound Cmax in male ICR mouse at 10 mg/kg, po measured after 24 hrs by LC-MS/MS analysis; type: ADME, organism-based; conditions: in vivo
[21] = Subacute toxicity in male BALB/c mouse assessed as body weight loss at 150 mg/kg, po administered via gavage for 14 days; type: organism-based; conditions: in vivo, 336 h, time 14 day
[22] = Subacute toxicity in male BALB/c mouse assessed as mortality at 150 mg/kg, po administered via gavage for 14 days; type: organism-based; conditions: in vivo, 336 h, time 14 day
[23] = Subacute toxicity in male BALB/c mouse assessed as change in heart to body weight ratio at 150 mg/kg, po administered via gavage for 14 days; type: organism-based; conditions: in vivo, 336 h, time 14 day
[24] = Subacute toxicity in male BALB/c mouse assessed as change in liver to body weight ratio at 150 mg/kg, po administered via gavage for 14 days; type: organism-based; conditions: in vivo, 336 h, time 14 day
[25] = Subacute toxicity in male BALB/c mouse assessed as change in spleen to body weight ratio at 150 mg/kg, po administered via gavage for 14 days; type: organism-based; conditions: in vivo, 336 h, time 14 day
[26] = Subacute toxicity in male BALB/c mouse assessed as change in lung to body weight ratio at 150 mg/kg, po administered via gavage for 14 days; type: organism-based; conditions: in vivo, 336 h, time 14 day
[27] = Subacute toxicity in male BALB/c mouse assessed as change in kidney to body weight ratio at 150 mg/kg, po administered via gavage for 14 days; type: organism-based; conditions: in vivo, 336 h, time 14 day
[28] = Subacute toxicity in male BALB/c mouse assessed as pathologic change in heart at 150 mg/kg, po administered via gavage for 14 days by H and E staining based analysis; type: organism-based; conditions: in vivo, 336 h, time 14 day
[29] = Subacute toxicity in male BALB/c mouse assessed as pathologic change in lung at 150 mg/kg, po administered via gavage for 14 days by H and E staining based analysis; type: organism-based; conditions: in vivo, 336 h, time 14 day
[30] = Subacute toxicity in male BALB/c mouse assessed as pathologic change in liver at 150 mg/kg, po administered via gavage for 14 days by H and E staining based analysis; type: organism-based; conditions: in vivo, 336 h, time 14 day
[31] = Subacute toxicity in male BALB/c mouse assessed as pathologic change in spleen at 150 mg/kg, po administered via gavage for 14 days by H and E staining based analysis; type: organism-based; conditions: in vivo, 336 h, time 14 day
[32] = Subacute toxicity in male BALB/c mouse assessed as pathologic change in kidney at 150 mg/kg, po administered via gavage for 14 days by H and E staining based analysis; type: organism-based; conditions: in vivo, 336 h, time 14 day
[33] = Hepatotoxicity in male BALB/c mouse assessed as effect on ALT level at 150 mg/kg, po administered via gavage for 14 days; type: toxicity, organism-based; conditions: in vivo, 336 h, time 14 day
[34] = Hepatotoxicity in male BALB/c mouse assessed as effect on AST level at 150 mg/kg, po administered via gavage for 14 days; type: toxicity, organism-based; conditions: in vivo, 336 h, time 14 day
[35] = Nephrotoxicity in male BALB/c mouse assessed as effect on blood urea nitrogen level at 150 mg/kg, po administered via gavage for 14 days; type: toxicity, organism-based; conditions: in vivo, 336 h, time 14 day
[36] = Nephrotoxicity in male BALB/c mouse assessed as decrease in creatinine level at 150 mg/kg, po administered via gavage for 14 days; type: toxicity, organism-based; conditions: in vivo, 336 h, time 14 day
Mus musculus [37] = test: Antidiabetic activity in human GLP-1R knockin male mouse model assessed as reduction in blood glucose level at 2 mg/kg, IG preadministered with compound for 1 hrs followed by glucose administration for 3 hrs by oral glucose tolerance test; type: functional, organism-based; conditions: time 4.0 hrs
Mus musculus [38] = test: (§1) Antidiabetic activity in human GLP-1R knockin male mouse model assessed as reduction in blood glucose level at 2 mg/kg, IG preadministered with compound for 1 hrs followed by first dose of glucose administration for 3 hrs and measured after 270 mins of second glucose administration by oral glucose tolerance test; type: functional, organism-based; conditions: time 510.0 min
Mus musculus [39] = test: Appetite suppressing activity in human GLP-1R knockin male mouse model assessed as reduction in food intake at 30 mg/kg, sc measured after 2.5 to 12 hrs; type: functional, organism-based; conditions: time 2.5-12 hrs
Mus musculus [40] = test: Appetite suppressing activity in human GLP-1R knockin male mouse model assessed as reduction in food intake at 30 mg/kg, sc measured at 12 to 24 hrs (light cycle); type: functional, organism-based; conditions: time 12-24 hrs
[41] = Toxicity in human GLP-1R knockin male mouse model assessed as effect on AST level at 30 mg/kg, sc measured after 24 hrs; type: organism-based; conditions: in vivo
[42] = Toxicity in human GLP-1R knockin male mouse model assessed as effect on ALT level at 30 mg/kg, sc measured after 24 hrs; type: organism-based; conditions: in vivo
[43] = Toxicity in human GLP-1R knockin male mouse model assessed as effect on BUN level at 30 mg/kg, sc measured after 24 hrs; type: organism-based; conditions: in vivo
[44] = Toxicity in human GLP-1R knockin male mouse model assessed as effect on creatinine level at 30 mg/kg, sc measured after 24 hrs; type: organism-based; conditions: in vivo
[45] = Toxicity in human GLP-1R knockin male mouse model assessed as effect on heart pathology at 30 mg/kg, sc measured after 24 hrs by H and E staining based analysis; type: organism-based; conditions: in vivo
[46] = Toxicity in human GLP-1R knockin male mouse model assessed as effect on lung pathology at 30 mg/kg, sc measured after 24 hrs by H and E staining based analysis; type: organism-based; conditions: in vivo
[47] = Toxicity in human GLP-1R knockin male mouse model assessed as effect on liver pathology at 30 mg/kg, sc measured after 24 hrs by H and E staining based analysis; type: organism-based; conditions: in vivo
[48] = Toxicity in human GLP-1R knockin male mouse model assessed as effect on spleen pathology at 30 mg/kg, sc measured after 24 hrs by H and E staining based analysis; type: organism-based; conditions: in vivo
[49] = Toxicity in human GLP-1R knockin male mouse model assessed as effect on kidney pathology at 30 mg/kg, sc measured after 24 hrs by H and E staining based analysis; type: organism-based; conditions: in vivo
[50] = molecular target: T1, Glucagon-like peptide 1 receptor; test: Agonist activity at human GLP-1R expressed in HEK293 cells assessed as cAMP accumulation incubated for 30 mins by LANCE ultra cAMP assay; type: functional, cell-based
Mus musculus [51] = test: as §1, with “300” for “270”; type: functional, organism-based; conditions: time 540.0 min

T1 sequence (P43220 whole entry): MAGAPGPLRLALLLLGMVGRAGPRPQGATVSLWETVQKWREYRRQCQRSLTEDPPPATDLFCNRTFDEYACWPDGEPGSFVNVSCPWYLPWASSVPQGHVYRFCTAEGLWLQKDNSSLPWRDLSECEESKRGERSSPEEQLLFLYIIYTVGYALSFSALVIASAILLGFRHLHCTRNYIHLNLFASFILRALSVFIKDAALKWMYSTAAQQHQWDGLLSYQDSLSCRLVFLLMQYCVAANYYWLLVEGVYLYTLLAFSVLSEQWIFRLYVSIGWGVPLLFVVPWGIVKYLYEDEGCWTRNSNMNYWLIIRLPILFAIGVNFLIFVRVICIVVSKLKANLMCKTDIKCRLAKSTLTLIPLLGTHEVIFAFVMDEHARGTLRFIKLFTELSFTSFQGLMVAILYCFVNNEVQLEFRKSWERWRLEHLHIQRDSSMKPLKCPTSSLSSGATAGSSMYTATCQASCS

COc1cc(C#N)ccc1C[Se]c1cccc(N2C=NN(Cc3nc4c(F)cc(C(=O)O)cc4n3C[C@@H]3CCO3)CC2)n1
EC50 [1]: > 200 µM | Emax [2]: 12% | Cmax [3]: 13400 ng/mL | AUC(0-t) at 24 h [4]: 3260 ng·h/mL | half-life [5]: 4.52 h | MRT last at 24 h [6]: 0.4 h | Vd [7]: 4.25 L/kg | clearance [8]: 10.3 mL/min/kg | Cmax [9]: 324 ng/mL | Tmax [10]: 0.5 h | AUC(0-t) at 24 h [11]: 537 ng·h/mL | half-life [12]: 7.02 h | MRT last at 24 h [13]: 2.88 h | bioavailability [14]: 3.38%

COc1cc(C#N)ccc1C[Se]c1cccc(C2CCN(Cc3nc4ccc(C(=O)O)cc4n3C[C@@H]3CCO3)CC2)n1
EC50 [1]: > 200 µM | Emax [2]: 13% | Ka [15]: 5.52 10^3/M.s | Kd [16]: 5.53 10^-3/s | Kd [17]: 1 µM | Cmax [3]: 8110 ng/mL | AUC(0-t) at 24 h [4]: 5460 ng·h/mL | half-life [5]: 2.22 h | MRT last at 24 h [6]: 0.77 h | Vd [7]: 1.18 L/kg | clearance [8]: 6.12 mL/min/kg | Cmax [9]: 4960 ng/mL | Tmax [10]: 0.5 h | AUC(0-t) at 24 h [11]: 5540 ng·h/mL | half-life [12]: 5.13 h | MRT last at 24 h [13]: 1.91 h | bioavailability [14]: 20.4% | fraction unbound at 2 µM [18]: 0.02 | fraction unbound at 2 µM [19]: 0.02 | fCmax [20]: 99.21 ng/mL | Activity [21]: Non-toxic | Activity [22]: Non-toxic | Activity [23]: Non-toxic | Activity [24]: Non-toxic | Activity [25]: Non-toxic | Activity [26]: Non-toxic | Activity [27]: Non-toxic | Activity [28]: Non-toxic | Activity [29]: Non-toxic | Activity [30]: Non-toxic | Activity [31]: Non-toxic | Activity [32]: Non-toxic | Activity [33]: Non-toxic | Activity [34]: Non-toxic | Activity [35]: Non-toxic | Activity [36]: Toxic | Activity (Mus musculus [37]): Active | Activity (Mus musculus [38]): Active | Activity (Mus musculus [39]): Active | Activity (Mus musculus [40]): Active | Activity [41]: Non-toxic | Activity [42]: Non-toxic | Activity [43]: Non-toxic | Activity [44]: Non-toxic | Activity [45]: Non-toxic | Activity [46]: Non-toxic | Activity [47]: Non-toxic | Activity [48]: Non-toxic | Activity [49]: Non-toxic

CC(C)[C@@H](NCc1nc2ccc(C(=O)O)cc2n1C[C@@H]1CCO1)C(=O)Nc1cccc([Se]Cc2ccc(C#N)cc2F)n1
EC50 [50]: > 200 µM

N#Cc1ccc(COc2cccc(C3CCN(Cc4nc5ccc(C(=O)O)cc5n4C[C@@H]4CCO4)CC3)n2)c(F)c1
Activity (Mus musculus [37]): Active | Activity (Mus musculus [51]): Active | Activity (Mus musculus [39]): Active | Activity (Mus musculus [40]): Active
